Tests used:
[1] = test system: pig lens; test: Swelling and cloudiness of extracted pig lenses soaked in test or control solutions (traumatic cataract model); parameters: key to degree of cloudiness in the lens (relative value): relative gray-scale density; uninjured lens in saline at start = 10; settings: for degree of cloudiness in the lens (relative value) / swelling of the lens: 100 mM in physiological saline
Description: Using an injured pig lens employed as a model for traumatic cataract, the influence of cyclic tetrasaccharide on the cloudiness in the lens was experimented as follows: A test solution was previously prepared by dissolving a cyclic tetrasaccharide crystal, penta hydrate, which had been prepared by the method in the later described Reference for Example 2, in physiological saline into a physiological saline containing 100 mM cyclic tetrasaccharide. As a positive control, a physiological saline containing 100 mM α,α-trehalose, a reagent grade specimen, commercialized by Hayashibara Biochemical Laboratories, Inc., Okayama, Japan, was used; andasanegativecontrol, physiological saline was used. Two milliliter aliquots of any one of the above three kinds of aqueous solutions were added to every two wells in respective commercialized 24-well culture plates. In one of the two wells containing the same kind of solution in each plate was placed a pig lens, which had been obtained from a slaughter-house, extracted by incision within three hours after the obtention and without injuring, and washing the extracted lens with physiological saline; while in the other of the two wells was placed a pig lens, which had been prepared by the same procedure as in the above but injured with a 27-gauge injection needle (commercialized by Terumo Co., Tokyo, Japan) to form an injured line, about one millimeter in length. These lens were allowed to stand at ambient temperature and macroscopically and microscopically observed their change in the degree of cloudiness and in the shape of swelling, etc. This experiment was run in a triplicate manner, and the macroscopic and microscopic observations were done just after (0), 1 hour, 2 hours, 6 hours, and 24 hours after the lenses were placed in the wells, and then observed daily over 28 days. A similar experiment was further conducted using a physiological saline containing 75 mM, 50 mM, 20 mM, 10 mM, or 1 mM cyclic tetrasaccharide and a lens that had not been injured with the injection needle. The degree of cloudiness in each lens, observed with “STEREOMICROSCOPE SZX12”, a product name of a stereomicroscope commercialized by Olympus Co., Tokyo, Japan, was expressed by photographing a transmitted light image of each lens with “PENGUIN 150CL”, a digital camera commercialized by Pixela Co., Tokyo, Japan, capturing the transmitted image by a computer using a view finder commercialized by Olympus Co., Tokyo, Japan, and expressing numerically the degree of light and shade of the captured image as a gray-scale using “Scion Image for Windows Beta 4.0.2”, a software commercialized by Scion Co., Maryland, U.S.A., to obtain a mean density for each lens. The time course change in the degree of cloudiness in each lens placed in each solution was expressed with a relative value, regarding the degree of cloudiness, just after the lens free of injury had been placed in physiological saline, as 10. The change of cloudiness and swelling are respectively in Tables 1 and 2. In Table 1, there show only the results from time 0 hour through two days and from days 7, 14 and 28.

[2] = test system: circular corneal fragment extracted from a pig eye ball; test: Corneal walleye/cloudiness and edema of pig corneal fragments soaked in test or control solutions; parameters: degree of corneal walleye/cloudiness (relative value): scale not given here; key to corneal edema: ◯: Corneal edema was observed.; —: No corneal edema was observed; settings: for corneal edema / degree of corneal walleye/cloudiness (relative value): 100 mM in physiological saline
Description: Experiment to examine the influence of cyclic tetrasaccharide on corneal walleye/cloudiness was conducted as follows: A physiological saline containing 100 mM cyclic tetrasaccharide was previously prepared for use as a test solution by dissolving a cyclic tetrasaccharide crystal, pentahydrate, which had been prepared by the later described method in Example for Reference 2. As a positive control solution, it was prepared a physiological saline containing 100 mM α,α-trehalose, a reagent grade specimen, commercialized by Hayashibara Biochemical Laboratories, Inc., Okayama, Japan; and as a negative control solution, physiological saline was used. Two milliliters of any one of the above three kinds of aqueous solutions were added to respective two wells in a commercialized 24-well culture plate. To each well in each culture plate a circular corneal fragment, which had been extracted from a pig eye ball obtained from a slaughterhouse by using a trephine for corneal transplantation, was placed and macroscopically and microscopically observed for changing in both the degree of corneal walleye/cloudiness and the change of corneal shape such as corneal edema. The macroscopic and microscopic observations were done just after the corneas were placed in the wells at (0) and at 1, 2, 6, 24, 48 and 72 hours after their placing. The methods of macroscopic and microscopic observations and the analysis of the time course change of corneal walleye/cloudiness were conducted by the same ones as used in Experiment 1. Tables 3 and 4 show the transition of corneal walleye/cloudiness and that of the corneal edema, respectively.

SMILES: OC[C@H]1O[C@H](O[C@H]2O[C@H](CO)[C@@H](O)[C@H](O)[C@H]2O)[C@H](O)[C@@H](O)[C@@H]1O [Positive control solution, α,α-trehalose, reference compound]
- degree of cloudiness in the lens (relative value) ([1]; injured lens, 1 hour): 10
- degree of cloudiness in the lens (relative value) ([1]; injured lens, 2 hours): 10
- degree of cloudiness in the lens (relative value) ([1]; injured lens, 6 hours): 15
- degree of cloudiness in the lens (relative value) ([1]; injured lens, 24 hours): 46
- degree of cloudiness in the lens (relative value) ([1]; injured lens, 2 days): 89
- swelling of the lens ([1]; injured lens, 2 days): ◯ (swelling was observed)
- degree of cloudiness in the lens (relative value) ([1]; injured lens, time 0): 10
- degree of cloudiness in the lens (relative value) ([1]; no injury, 1 hour): 13
- degree of cloudiness in the lens (relative value) ([1]; no injury, 2 hours): 13
- degree of cloudiness in the lens (relative value) ([1]; no injury, 6 hours): 12
- degree of cloudiness in the lens (relative value) ([1]; no injury, 24 hours): 14
- degree of cloudiness in the lens (relative value) ([1]; no injury, 2 days): 19
- degree of cloudiness in the lens (relative value) ([1]; no injury, 7 days): 36
- degree of cloudiness in the lens (relative value) ([1]; no injury, 14 days): 39
- degree of cloudiness in the lens (relative value) ([1]; no injury, 28 days): 75
- swelling of the lens ([1]; no injury, 28 days): ◯ (swelling was observed)
- degree of cloudiness in the lens (relative value) ([1]; no injury, time 0): 10
- swelling of the lens (in words) ([1]; 100 mM, injured lens, 2 days after initiating observation): observed to have swelling from 2 days
- cloudiness in the lens compared with the negative control solution ([1]; 100 mM, lenses with no injury): inhibited
- swelling of the lens (in words) ([1]; 100 mM, lenses with no injury, on 28 days): swelling of the lenses was macroscopically observed
- corneal edema ([2]; 1 hour): —
- degree of corneal walleye/cloudiness (relative value) ([2]; 1 hour): 11
- corneal edema ([2]; 2 hours): —
- degree of corneal walleye/cloudiness (relative value) ([2]; 2 hours): 11
- corneal edema ([2]; 6 hours): —
- degree of corneal walleye/cloudiness (relative value) ([2]; 6 hours): 13
- corneal edema ([2]; 24 hours): ◯
- degree of corneal walleye/cloudiness (relative value) ([2]; 24 hours): 30
- corneal edema ([2]; 48 hours): ◯
- degree of corneal walleye/cloudiness (relative value) ([2]; 48 hours): 60
- corneal edema ([2]; 72 hours): ◯
- degree of corneal walleye/cloudiness (relative value) ([2]; 72 hours): 70
- corneal edema ([2]; time 0): —
- degree of corneal walleye/cloudiness (relative value) ([2]; time 0): 10
- corneal edema (in words) ([2]; 100 mM, at 24 hours): macroscopic corneal edema
